One series relates to Long Evans rats. In words: Delayed spontaneous alternation in four-arm cross maze (working memory). Format: in vivo, rat. The source says: Various neurodegenerative diseases and psychiatric disorders are marked by alterations in brain M1 muscarinic cholinergic receptor function and cognitive deficits including working memory and cognitive flexibility impairments. Alleviating such deficits in conditions such as Alzheimer's disease and schizophrenia has been limited due to a lack of agonists with M1 muscarinic receptor subtype specificity. CDD-102A is a functionally-selective M1 agonist with lower activity at other muscarinic receptor subtypes. The present experiment investigated the effects of systemic treatment with CDD-102A on working memory and/or attentional set-shifting in rats. All testing occurred in a four-arm cross maze. Delayed (30 sec) spontaneous alternation in Long Evans rats was used as a test for working memory. […] A shift between a place and visual cue discrimination was used as an attentional set-shifting test. In this set of experiments, rats received either vehicle or CDD-102A (0.003-0.1 mg/kg) 30 minutes prior to testing in a place-visual cue set-shifting task. To evaluate the effects of muscarinic agonists on memory function in normal animals, rats were tested on a delayed spontaneous alternation task in a modified T-maze. The task takes advantage of rats' natural tendency to alternate. Animals were placed in a 4-arm maze shaped like a “+”. If a rat chose four different arms in four consecutive choices it was scored as an alternation. A delay was inserted between arm choices to help assess memory function. In the delay version of the task, CDD-0102A (a functionally selective M1 agonist) improved memory function in a dose dependent manner (see FIG. 1). All testing was carried out in a four-arm cross-maze made of 0.6 cm thick black plastic was used for all behavioral testing. The maze was placed on a table that was 72 cm above the floor. Each arm was 55 cm long 10 cm wide. The height of the arm walls was 15.0 cm. […] The number and sequence of arm entries was recorded. An arm entry was recorded when all four paws entered an arm. […]

Another series relates to rats. Put plainly: Place-visual cue attentional set-shifting task (cognitive flexibility). Format: in vivo, rat. The source says: Various neurodegenerative diseases and psychiatric disorders are marked by alterations in brain M1 muscarinic cholinergic receptor function and cognitive deficits including working memory and cognitive flexibility impairments. Alleviating such deficits in conditions such as Alzheimer's disease and schizophrenia has been limited due to a lack of agonists with M1 muscarinic receptor subtype specificity. CDD-102A is a functionally-selective M1 agonist with lower activity at other muscarinic receptor subtypes. The present experiment investigated the effects of systemic treatment with CDD-102A on working memory and/or attentional set-shifting in rats. All testing occurred in a four-arm cross maze. Delayed (30 sec) spontaneous alternation in Long Evans rats was used as a test for working memory. […] A shift between a place and visual cue discrimination was used as an attentional set-shifting test. In this set of experiments, rats received either vehicle or CDD-102A (0.003-0.1 mg/kg) 30 minutes prior to testing in a place-visual cue set-shifting task. A treatment was administered either prior to the acquisition phase or prior to the shift phase. […] To examine cognitive flexibility, animals were evaluated for their ability to learn a place-visual cue task. Local cues in the maze arms included a black board in one arm and white board in the other arm. The cues were switched between the choice arms randomly across trials so the same cue was not always in the same location. Rats first learned to use a place strategy—always enter the same arm to receive a cereal reinforcement. Criterion was set at 10 consecutive correct trials. No treatment was given to rats prior to learning the place strategy test. The results are shown with the two bars on the left side of the graph in FIG. 2, showing that learning of a place-visual cue task. CDD-0102A, at a dose of 0.03 mg/kg decreased the number of trials to criterion (10 consecutive correct choices). Vehicle (N=3), CDD-0102A (N=4). The following day, rats had to inhibit using a place strategy and learn a visual cue strategy. That is, a rat had to choose the arm that contained a particular color cue (e.g., black). The criterion again was set at 10 consecutive correct trials. Rats received either saline (N=3) or CDD-0102A at 0.03 or 0.1 mg/kg (N=4) 30 minutes prior to testing. The results are shown in the middle of FIG. 2. […] Similar studies evaluated the ability of animals to shift from learning a visual cue task to a place strategy. Again criterion was set at 10 consecutive correct trials. Rats received either saline (N=3) or CDD-0102A at 0.03 or 0.1 mg/kg (N=4) 30 minutes prior to testing. The results are shown in the middle of FIG. 3. […] All testing was carried out in a four-arm cross-maze made of 0.6 cm thick black plastic was used for all behavioral testing. The maze was placed on a table that was 72 cm above the floor. Each arm was 55 cm long 10 cm wide. The height of the arm walls was 15.0 cm. Each arm contained a food well (3.2 cm diameter×1.6 cm high) that was 3 cm away from the end wall. Each food-well hole was 2.3 cm in diameter and 1.6 cm deep.

A further series concerns rat. In words: Salivation following i.p. injections in the rat. Format: in vivo. From the text: FIG. 6 presents a graph comparing the effects of CDD-0102A on memory function and salivation following i.p. injections in the rat.
The next series concerns Alzheimer's subjects. To be noted: cited from earlier work.
[1] abbreviates: rats, 0.03 or 0.1 mg/kg 30 minutes prior to testing, compared to controls, hydrochloride.
[2] abbreviates: shift from place cue task to visual cue task, 0.03 and 0.1 mg/kg.
The mark [3] stands for this setting: shift from visual cue task to place cue task, 0.03 and 0.1 mg/kg.

“Also recorded” adds a separate entry of the source.

In the case of `CCc1noc(C2CN=CNC2)n1.Cl` (stereo not drawn) [CDD-0102A, 5-(3-ethyl-1,2,4-oxadiazol-5-yl)-1,4,5,6-tetrahydropyrimidine hydrochloride], the “Memory function in the delay version of the spontaneous alternation task” value in the series with Long Evans rats (normal rats, i.p., dose dependent (FIG. 1)) is “improved”. The “Delayed spontaneous alternation performance” value in the series with Long Evans rats (rats, 0.1, 0.3 and 1 mg/kg i.p. 30 minutes before testing, 30 sec delay, listed as CDD-102A, hydrochloride) is on record as “significantly enhanced”. In addition, the “Number of arm entries (locomotor activity)” value with Long Evans rats (rats, all the doses tested, i.p.) is recorded as “did not alter”. For the same molecule, the “Acquisition of a place or visual cue discrimination” value in the series with rats (rats, 0.003-0.1 mg/kg 30 minutes prior to the acquisition phase) is listed as “did not affect”. Moreover, the “Shift between a place and visual cue discrimination” value in the series on rats (rats, 0.03 and 0.1 mg/kg, 30 minutes prior to the shift phase) is reported as “significantly enhanced”. For the same molecule, in the series on rats (setting [1]), the “Trials to criterion (10 consecutive correct choices), shift from place cue task to visual cue task” value is reported as “about half the trials; also recorded: decreased” and the “Trials to criterion (10 consecutive correct choices), shift from visual cue task to place cue task” value is given as “decreased; also recorded: about half the trials”. Also, the “Ability to initially inhibit a previously relevant strategy and maintain a new, relevant strategy once selected” value in the series with rats (rats, shift to the place or to the visual cue strategy) was “significantly increased”. In addition, in the series on rats (setting [2]), the “Number of never-reinforced errors” value is recorded as “decreased”, the “Number of perseverative errors” value is recorded as “decreased” and the “Number of regressive errors” value is listed as “decreased”. Besides, in the series with rats (setting [3]), the “Number of never-reinforced errors” value is “no significant impact”, the “Number of perseverative errors” value is “decreased” and the “Number of regressive errors” value was “decreased”. In the series with rat, the “Lowest dose producing salivation” value is recorded as 0.3 mg/kg; the “Separation between the dose enhancing place-visual cue learning (0.03 mg/kg i.p.) and the lowest dose producing salivation” value is reported as “ten-fold lower”.

As to `CCCCCCOc1nsnc1C1=CCCN(C)C1` [xanomeline], the “Side effects associated with activation of M3 receptors (salivation, diarrhea and profuse sweating)” value in the series on Alzheimer's subjects (Alzheimer's subjects, limited subject compliance) is reported as “produced unwanted side effects”. In addition, the “Psychiatric symptoms such as hallucinations” value in the series on Alzheimer's subjects (phase II clinical trials in Alzheimer's subjects) is reported as “significantly improved”.

Values taken from patent US10835532B2, “Muscarinic agonists as cognitive enhancers” (The University of Toledo, priority 2008, dated 2020).
